Results as given in patent publication US20220389465A1, “METHODS OF REDUCING BIURET IN UREA COMPOSITIONS” (Regents of the University of Minnesota, priority 2019, published 2022).
Each block holds one molecule with its values, some of them ahead of it.

Experiments:
[1] = biological target: T1, triuret hydrolase (TrtA) from Herbaspirillum sp. BH-1 (Herbaspirillum sp. BH-1, UniProt A0A2N6JFX7); test: Kinetic constants of triuret hydrolase (Km for triuret, inhibition by urea, FIG. 16B); format: biochemical; conditions: urea concentrations up to 50 mM
T1 sequence (A0A2N6JFX7 1-227): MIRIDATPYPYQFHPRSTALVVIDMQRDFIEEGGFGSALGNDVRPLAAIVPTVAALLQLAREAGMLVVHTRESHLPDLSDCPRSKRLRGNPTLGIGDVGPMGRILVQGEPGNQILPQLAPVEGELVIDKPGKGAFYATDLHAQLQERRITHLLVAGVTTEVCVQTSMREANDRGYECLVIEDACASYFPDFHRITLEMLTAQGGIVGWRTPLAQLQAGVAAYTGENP

[2] = test system: triuret hydrolase
[3] = test system: native biuret hydrolase (BiuH) from Herbaspirillum sp. BH-1, six-histidine tag; test: BiuH activity in the presence of urea (Berthelot ammonia assay, FIGS. 4, 5A-5B); format: biochemical
Procedure: FIG. 4. Evaluation of urea inhibition of biuret hydrolase and various urea concentrations. Biuret was added at 0.8 mM concentration and 30 microgram enzyme per ml incubated for 30 minutes.
(§1) Analytical methods: The colorimetric Berthelot ammonia assay was used to measure residual ammonium (NH4^+) present in the urea and to detect NH4^+ released from the residual biuret in urea by addition of biuret hydrolase (BiuH) enzyme. The assay was conducted by adding 0.100 ml of sample directly to 0.300 ml of solution A (10 g/L phenol and 0.050 g/L sodium nitroprusside), followed by addition of 0.400 ml of solution B (5 g/L sodium hydroxide and 8.25 ml/L of commercial chlorine bleach or 5.25% sodium hypochlorite). The reactions were pulsed on a vortex mixer, incubated at 37° C. for 60 min, and then absorbance at 630 nm was read with a Beckman-Coulter DU-640 spectrophotometer. Quantification of NH4^+ was done via a standard curve prepared from ammonium chloride (NH4Cl) (Sigma-Aldrich, St. Louis, Mo.) standards at 5-1000 μM in deionized reverse osmosis (DI/RO) water that were analyzed with the Berthelot reaction.
Enzyme purification: A synthetic gene encoding the native biuret hydrolase from Herbaspirillum sp. BH-1 was expressed with a C- or N-terminal six-histidine tag from an isopropyl-β-D-thiogalactoside (IPTG)-inducible promoter T7 promoter on a plasmid in Eschrichia coli BL2(DE3). Cells were harvested by centrifugation and lysed with a French pressure cell (two passages at 124 MPa) in a buffer of 20 mM sodium phosphate (pH 7.4), 500 mM sodium chloride, 10 mM imidazole, and 10 mM 2-mercaptoethanol. The resulting crude lysate was centrifuged at 19,000×g for 60 min and the supernatant was passed through a […] filter. An AKTA FPLC system (GE Healthcare, Chicago, Ill.) was used to inject the filtrate (cleared crude lysate) onto a HisTrap affinity column (GE Healthcare) charged with Ni^2+ ions. Bound BiuH was eluted from the column with a linear gradient of 20-250 mM imidazole in the same buffer. […] Total protein concentration was determined with the BioRad (Hercules, Calif.) Bradford protein assay reagent and BiuH purity was verified by SDS-PAGE. […]
BiuH activity in the presence of urea: Biuret degradation reactions were performed by adding 10-20 μg purified BiuH to 0.5 ml of urea standards (0.5-8 M) in DI/RO water in 1.7 ml microcentrifuge tubes. […] Total ammonium (NH4^+) was quantified with the Berthelot assay. Residual biuret present in urea was determined by treating unspiked urea standards with BiuH and subtracting the amount of residual NH4^+ detected above. […] Net NH4^+ released from the spiked biuret by BiuH was calculated by subtracting the amounts of residual biuret and NH4^+ detected in the control treatments. […]

[4] = test system: biuret hydrolase; test: BiuH activity in the presence of urea (Berthelot ammonia assay); format: biochemical, Herbaspirillum sp. BH-1
Procedure: as §1
BiuH activity in the presence of urea: Biuret degradation reactions were performed by adding 10-20 μg purified BiuH to 0.5 ml of urea standards (0.5-8 M) in DI/RO water in 1.7 ml microcentrifuge tubes. […] Total ammonium (NH4^+) was quantified with the Berthelot assay. Residual biuret present in urea was determined by treating unspiked urea standards with BiuH and subtracting the amount of residual NH4^+ detected above. […]

[5] = biological target: T2, biuret hydrolase (Rhizobium johnstonii, UniProt Q1M7F4); test: Inhibition of biuret hydrolase by urea, kinetic constants; format: biochemical
T2 construct: six-histidine tag (C); made in house; host or cells: Escherichia coli BL21(DE3)

[6] = test system: cyanuric acid hydrolase; conditions: no turnover observed; cited from earlier work

T2 sequence (Q1M7F4 whole entry): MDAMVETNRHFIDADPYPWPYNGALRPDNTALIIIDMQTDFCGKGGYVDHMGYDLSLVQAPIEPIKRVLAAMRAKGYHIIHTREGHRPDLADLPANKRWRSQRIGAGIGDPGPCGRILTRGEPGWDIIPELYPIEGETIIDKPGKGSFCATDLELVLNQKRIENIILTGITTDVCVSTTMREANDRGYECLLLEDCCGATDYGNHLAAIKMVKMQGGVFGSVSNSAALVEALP

SMILES: NC(N)=O [urea]
- inhibition by urea [1]: no inhibition was measurable
- inhibition of triuret hydrolase by urea ([2]; urea concentrations up to 50 mM): no inhibition
- inhibition by urea ([3]; 4M urea, residual biuret in Fluka urea): slight inhibition
- inhibition by urea ([3]; 10,000 fold higher concentration of urea than biuret): not inhibited
- inhibition by urea ([3]; urea concentrations higher than 4M (up to 8.0 M), residual biuret in Fluka urea): stronger inhibition
- inhibition by urea ([3]; urea up to 0.5M, 0.8 mM biuret, 30 microgram enzyme per ml, 30 minutes): not inhibited
- inhibition of biuret hydrolase by urea ([4]; 4M urea, NH4+ released from residual biuret in 0.5-8.0 M Fluka urea): slight inhibition
- inhibition of biuret hydrolase by urea ([4]; urea up to 0.5M, biuret 0.8 mM, 30 microgram enzyme per ml, 30 minutes): not inhibited
- Ki [5]: 34 mM

SMILES: O=C1CC(=O)NC(=O)N1 [barbituric acid]
- effect on cyanuric acid hydrolase [6]: inhibitor

- Km ([2]; read-out: Km for triuret): 20 to 21 µM
SMILES: NC(=O)NC(=O)NC(N)=O [triuret]
